Data published in US7985731B2, “Sugar chain added GLP-1 peptide” (Otsuka Chemical Holdings Co., Ltd., priority 2007, dated 2011).

What was measured:
C57BL/6JJcl mice = assay: Test Example 7: Oral Glucose Tolerance Test (OGTT); format: in vivo; details: for dose dependence of activity of suppressing rise in blood-sugar levels in OGTT: doses 0.9 nmol/kg and 0.09 nmol/kg intraperitoneal
Method in brief: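 Overnight-fasted mice received oral glucose 1 mg/g 30 minutes after treatment. Orbital blood taken before and at 30, 60, 120 minutes post-glucose. Blood glucose measured by glucometer.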

mouse GLP-1 receptor = molecular target: T1, mouse GLP-1 receptor (Mus musculus, UniProt O35659); assay: Test Example 6: ability to synthesize cAMP in mouse GLP-1 receptor-expressing CHO-K1 cells; format: cell-based
T1 construct: expressed in transfected cells
T1 sequence (O35659 22-463): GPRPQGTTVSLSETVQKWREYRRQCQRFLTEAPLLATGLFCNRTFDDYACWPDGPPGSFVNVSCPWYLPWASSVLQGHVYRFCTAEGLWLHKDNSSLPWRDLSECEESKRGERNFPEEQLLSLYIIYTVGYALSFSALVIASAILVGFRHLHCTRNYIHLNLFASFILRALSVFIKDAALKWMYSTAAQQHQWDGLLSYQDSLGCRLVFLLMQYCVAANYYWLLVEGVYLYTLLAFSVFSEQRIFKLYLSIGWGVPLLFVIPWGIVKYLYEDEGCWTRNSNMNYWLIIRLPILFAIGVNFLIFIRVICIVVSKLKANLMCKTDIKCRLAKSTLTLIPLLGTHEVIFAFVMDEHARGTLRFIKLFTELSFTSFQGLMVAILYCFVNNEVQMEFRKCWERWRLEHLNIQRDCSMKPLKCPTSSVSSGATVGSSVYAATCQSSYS
Protocol: 1. Construction of Mouse GLP-1 Receptor-Expressing Vector
A mouse GLP1 receptor sense primer (5′-[…]-3′) (SEQ ID NO: 152) and a mouse GLP-1 receptor antisense primer (5′-[…]-3′) (SEQ ID NO: 153) capable of binding to the 5′ and 3′ ends of mouse GLP-1 receptor cDNA were separately synthesized. PCR was performed using Ex Taq polymerase (TaKaRa) with cDNA (Clone ID: 40046534, Open Biosystems) as a template. Specifically, 50 μL in total of reaction solution consisting of 1 μL of template cDNA (10 ng/μL), 4 μL of 2.5 mM dNTPs, 1 μL of primer solution mixtures (each 50 μM), 5 μL of ×10 Ex Taq polymerase Buffer, 0.25 μL of Ex Taq polymerase and 38.75 μL of sterilized water was used and allowed to react by 94° C. for 1 minute; 94° C. for 45 seconds, 55° C. for 1 minute and 72° C. for 2 minutes (35 cycles); and 72° C. for 10 minutes. The PCR reaction product was electrophoresed on 1% agarose gel, and the cDNA fragment was purified using Wizard SV Gel and PCR Clean-up System (Promega) and treated with restriction enzymes (EcoRI and NheI) to obtain mouse GLP-1 receptor cDNA.
To efficiently obtain cells highly expressing a mouse GLP-1 receptor, a pIRES-gfp vector was used as an expression vector. This vector was prepared by inserting, to a vector pEGFP-N1 (Clontech), an IRES gene-containing DNA fragment obtained by the restriction enzyme treatment (Sal I and BamHI) of pIRESpuro2 (Clontech).
The mouse GLP-1 receptor cDNA fragment was inserted to pIRES-gfp to thereby obtain a mouse GLP-1 receptor-expressing vector mGLP-1R/pIRES-gfp. The DNA sequence of the obtained vector was confirmed using ABI3100-Avant (Applied Biosystems).
2. Preparation of Mouse GLP-1 Receptor-Expressing CHO-K1 Cells
CHO-K1 cells (ATCC catalog No. CCL-61) were transfected with the obtained mGLP-1R/pIRES-gfp using FuGENE (registered trademark) (Roche) according to the instruction manual. The transfected CHO-K1 cells were cultured in RPMI1640 medium (Wako Pure Chemical Industries) containing 10% FCS (Hyclone) and penicillin-streptomycin (SIGMA). Drug selection was conducted by the addition of 1.0 mg/ml G418 (Wako Pure Chemical Industries). The drug resistance cells were sorted with a cell sorter (EPICS ALTRA, Beckman Coulter) using a GFP expression level as an index. After the sorting, the limiting dilution method was conducted to obtain cells highly expressing GFP, namely, cells highly expressing a mouse GLP-1 receptor. The obtained cells were used as mouse GLP-1 receptor-expressing CHO-K1 cells in the experiment shown below.
3. Analysis of Agonist Effect of Oligosaccharide Chain Added GLP-1 Peptide (Ability to Synthesize cAMP)
The mouse GLP-1 receptor-expressing CHO-K1 cells prepared in the preceding paragraph 2 were used to evaluate the agonist effect of the oligosaccharide chain added GLP-1 peptide using the ability to synthesize cAMP as an index.
The mouse GLP-1 receptor-expressing CHO-K1 cells were suspended at a concentration of 5×10^5 cells/ml in RPMI1640 medium containing 10% FCS. The cell suspension was seeded at a concentration of 100 μL per well to a flat-bottomed 96-well plate (Falcon) and cultured at 5% CO2 at 37° C. for 16 hours. The culture supernatant was discarded. The oligosaccharide chain added GLP-1 peptide dissolved in Krebs Ringer bicarbonate Buffer containing 2.5 mM glucose was added at a concentration of 100 μL/well and cultured at 37° C. for 30 minutes. The culture supernatant was immediately discarded. The amount of cAMP synthesized in the mouse GLP-1 receptor-expressing CHO-K1 cells was measured using cAMP ELISA Kit (GE Healthcare or Cayman) and used as an index for the agonist effect of the oligosaccharide chain added GLP-1 peptide on mouse GLP-1 receptors.
GLP-1 increases intracellular cAMP concentrations through the binding to its receptor and promotes insulin secretion. Thus, the activity of the oligosaccharide chain added GLP-1 peptide was evaluated using the ability to synthesize cAMP as an index. […]

[1] = test system: db/db (BKS.Cg-+Lepr db/+Lepr db/Jcl) mice; assay: Test Example 8: effect of lowering blood-sugar levels in diabetes model mice; format: in vivo; details: 9 nmol/kg intraperitoneal; for effect of lowering blood-sugar levels in db/db mice: 10-week-old male mice; for durability of effect of lowering blood-sugar levels in db/db mice: up to 300 minutes
Protocol: The oligosaccharide chain added GLP-1 peptide prepared in Example 2, 3, 4, 21 or 23 or the GLP-1 prepared in Comparative Example 1 in a PBS solution (9 nmol/10 ml) was intraperitoneally administered at a dose of 10 ml/kg to BKS.Cg−+Lepr^db/+Lepr^db/Jcl mice (10 week old, male). Blood was collected from the orbits before the compound administration and 30 minutes, 60 minutes, 120 minutes, 180 minutes and 300 minutes after the compound administration. Blood-sugar levels were measured using ACCU-CHEK Aviva (Roche Diagnostics).
The db/db (BKS.Cg−+Lepr^db/+Lepr^db/Jcl) mice serving as diabetes model mice have a mutation in a receptor of leptin which is anorexigenic/energy metabolism-accelerating hormone and develops conditions such as obesity or hyperglycemia.
Blood-sugar levels were measured over time, and their effects of lowering blood-sugar levels were compared with that of the GLP-1 without oligosaccharide chain addition of Comparative Example 1.

[2] = 9 nmol/kg intraperitoneal 30 minutes before glucose 1 mg/g oral

SMILES	activity of suppressing rise in blood-sugar levels in OGTT (C57BL/6JJcl mice; 0.09 nmol/kg intraperitoneal)	effect of suppressing rise in blood-sugar levels in OGTT (C57BL/6JJcl mice; 0.9 nmol/kg intraperitoneal)	effect of suppressing rise in blood-sugar levels in OGTT (C57BL/6JJcl mice; [2])	dose dependence of activity of suppressing rise in blood-sugar levels in OGTT (C57BL/6JJcl mice)	activity of suppressing rise in blood-sugar levels in OGTT relative to GLP-1 (times) (C57BL/6JJcl mice; from doses giving equivalent effect, GLP-1 at 9 nmol/kg)	cAMP synthesis activity compared with GLP-1 (in words) (mouse GLP-1 receptor)	effect of lowering blood-sugar levels in db/db mice [1]	durability of effect of lowering blood-sugar levels in db/db mice [1]	efficacy relative to 30Cys GLP-1-disialo and 36Cys GLP-1-disialo at the same dose in OGTT (C57BL/6JJcl mice; 0.9 nmol/kg intraperitoneal)
CC[C@H](C)[C@H](NC(=O)[C@H](Cc1ccccc1)NC(=O)[C@H](CCC(=O)O)NC(=O)[C@H](CCCCN)NC(=O)[C@H](C)NC(=O)[C@H](C)NC(=O)[C@H](CCC(N)=O)NC(=O)CNC(=O)[C@H](CCC(=O)O)NC(=O)[C@H](CC(C)C)NC(=O)[C@H](Cc1ccc(O)cc1)NC(=O)[C@H](CO)NC(=O)[C@H](CO)NC(=O)[C@@H](NC(=O)[C@H](CC(=O)O)NC(=O)[C@H](CO)NC(=O)[C@@H](NC(=O)[C@H](Cc1ccccc1)NC(=O)[C@@H](NC(=O)CNC(=O)[C@H](CCC(=O)O)NC(=O)[C@H](C)NC(=O)[C@@H](N)Cc1c[nH]cn1)[C@@H](C)O)[C@@H](C)O)C(C)C)C(=O)N[C@@H](C)C(=O)N[C@@H](Cc1c[nH]c2ccccc12)C(=O)N[C@@H](CC(C)C)C(=O)N[C@H](C(=O)N[C@@H](CCCCN)C(=O)NCC(=O)N[C@@H](CSCC(=O)N[C@@H]1O[C@H](CO)[C@@H](O[C@@H]2O[C@H](CO)[C@@H](O[C@@H]3O[C@H](CO[C@H]4O[C@H](CO)[C@@H](O)[C@H](O)[C@@H]4O[C@@H]4O[C@H](CO)[C@@H](O[C@@H]5O[C@H](CO[C@]6(C(=O)O)C[C@H](O)[C@@H](NC(C)=O)[C@H]([C@H](O)[C@H](O)CO)O6)[C@H](O)[C@H](O)[C@H]5O)[C@H](O)[C@H]4NC(C)=O)[C@@H](O)[C@H](O[C@H]4O[C@H](CO)[C@@H](O)[C@H](O)[C@@H]4O[C@@H]4O[C@H](CO)[C@@H](O[C@@H]5O[C@H](CO[C@]6(C(=O)O)C[C@H](O)[C@@H](NC(C)=O)[C@H]([C@H](O)[C@H](O)CO)O6)[C@H](O)[C@H](O)[C@H]5O)[C@H](O)[C@H]4NC(C)=O)[C@@H]3O)[C@H](O)[C@H]2NC(C)=O)[C@H](O)[C@H]1NC(C)=O)C(=O)NCC(=O)O)C(C)C [Example 4, 36Cys GLP-1-disialo]	equivalent to that of the GLP-1 at a dose of 9 nmol/kg	suppressed rise in blood-sugar levels almost completely	strong effect of suppressing rise in blood-sugar levels	dose-dependent activity of suppressing rise in blood-sugar levels	about 100 times	activity equal to or more than that of the GLP-1	strong effect of lowering blood-sugar levels	blood-sugar levels were kept at low levels after 300 minutes	
CC[C@H](C)[C@H](NC(=O)[C@H](Cc1ccccc1)NC(=O)[C@H](CCC(=O)O)NC(=O)[C@H](CCCCN)NC(=O)[C@H](C)NC(=O)[C@H](C)NC(=O)[C@H](CCC(N)=O)NC(=O)CNC(=O)[C@H](CCC(=O)O)NC(=O)[C@H](CC(C)C)NC(=O)[C@H](Cc1ccc(O)cc1)NC(=O)[C@H](CO)NC(=O)[C@H](CO)NC(=O)[C@@H](NC(=O)[C@H](CC(=O)O)NC(=O)[C@H](CO)NC(=O)[C@@H](NC(=O)[C@H](Cc1ccccc1)NC(=O)[C@@H](NC(=O)CNC(=O)[C@H](CCC(=O)O)NC(=O)[C@H](C)NC(=O)[C@@H](N)Cc1c[nH]cn1)[C@@H](C)O)[C@@H](C)O)C(C)C)C(=O)N[C@@H](C)C(=O)N[C@@H](Cc1c[nH]c2ccccc12)C(=O)N[C@@H](CC(C)C)C(=O)N[C@H](C(=O)N[C@@H](CSCC(=O)N[C@@H]1O[C@H](CO)[C@@H](O[C@@H]2O[C@H](CO)[C@@H](O[C@@H]3O[C@H](CO[C@H]4O[C@H](CO)[C@@H](O)[C@H](O)[C@@H]4O[C@@H]4O[C@H](CO)[C@@H](O[C@@H]5O[C@H](CO[C@]6(C(=O)O)C[C@H](O)[C@@H](NC(C)=O)[C@H]([C@H](O)[C@H](O)CO)O6)[C@H](O)[C@H](O)[C@H]5O)[C@H](O)[C@H]4NC(C)=O)[C@@H](O)[C@H](O[C@H]4O[C@H](CO)[C@@H](O)[C@H](O)[C@@H]4O[C@@H]4O[C@H](CO)[C@@H](O[C@@H]5O[C@H](CO[C@]6(C(=O)O)C[C@H](O)[C@@H](NC(C)=O)[C@H]([C@H](O)[C@H](O)CO)O6)[C@H](O)[C@H](O)[C@H]5O)[C@H](O)[C@H]4NC(C)=O)[C@@H]3O)[C@H](O)[C@H]2NC(C)=O)[C@H](O)[C@H]1NC(C)=O)C(=O)NCC(=O)N[C@@H](CCCNC(=N)N)C(=O)NCC(=O)O)C(C)C [Example 23, 34Cys GLP-1-disialo]			strong effect of suppressing rise in blood-sugar levels	dose-dependent activity of suppressing rise in blood-sugar levels		activity equal to or more than that of the GLP-1	strong effect of lowering blood-sugar levels	effects of lowering blood-sugar levels were slightly weakened over time	about ½
